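Step 1: Grow cells in 96-well plates. Step 2: Expose to compound for 48 hours at 5 concentrations. Step 3: Interpolate endpoints linearly; if unreached, use highest concentration. GI50 is the concentration that inhibits growth by half.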 Calls of active or inactive are those of the source. Cut-off read from the data, not from the text of the source: active = GI50 up to about 1.1 µM and inactive = higher.
Assays:
Experiment in all cases: inhibition of tumour cell growth, NCI panel, 48 h
HCC 2998 = test system: HCC 2998
HCT-15 = test system: HCT-15
SF-295 = test system: SF-295
UACC-257 = test system: UACC-257
TK-10 = test system: TK-10
CAKI-1 = test system: CAKI-1
OVCAR-3 = test system: OVCAR-3
MCF7 = test system: MCF7
CCRF-CEM = test system: CCRF-CEM
HCT-116 = test system: HCT-116
DU-145 = test system: DU-145
SN12C = test system: SN12C
HT-29 = test system: HT-29
SK-MEL-2 = test system: SK-MEL-2
NCI-H522 = test system: NCI-H522
MOLT-4 = test system: MOLT-4
K562 = test system: K562
IGROV-1 = test system: IGROV-1
SNB-75 = test system: SNB-75
A498 = test system: A498

CC1(C)C(=O)N(O)C(C)(C)N1N=O
GI50 (HCC 2998): > 10 µM (inactive) | GI50 (HCT-15): > 10 µM | GI50 (SF-295): > 10 µM (inactive) | GI50 (UACC-257): > 10 µM (inactive) | GI50 (TK-10): > 10 µM (inactive) | GI50 (CAKI-1): > 10 µM (inactive) | GI50 (OVCAR-3): > 10 µM (inactive) | GI50 (MCF7): > 10 µM (inactive) | GI50 (CCRF-CEM): > 10 µM (inactive) | GI50 (HCT-116): > 10 µM (inactive) | GI50 (DU-145): > 10 µM (inactive) | GI50 (SN12C): > 10 µM (inactive) | GI50 (HT-29): > 10 µM (inactive) | GI50 (SK-MEL-2): > 10 µM (inactive) | GI50 (NCI-H522): > 10 µM (inactive) | GI50 (MOLT-4): > 10 µM (inactive) | GI50 (K562): > 10 µM (inactive)

COc1cccc(-c2cccc(SC)n2)n1
GI50 (HCC 2998): 23.4 µM (inactive) | GI50 (HCT-15): 27 µM | GI50 (SF-295): 34.4 µM (inactive) | GI50 (UACC-257): 21 µM (inactive) | GI50 (TK-10): 39.2 µM (inactive) | GI50 (CAKI-1): 60 µM (inactive) | GI50 (OVCAR-3): 20.8 µM (inactive) | GI50 (IGROV-1): 27.2 µM (inactive) | GI50 (MCF7): 31.3 µM (inactive) | GI50 (SNB-75): 26.4 µM (inactive) | GI50 (CCRF-CEM): 18.2 µM (inactive) | GI50 (HCT-116): 28.4 µM (inactive) | GI50 (DU-145): 34.4 µM (inactive) | GI50 (SN12C): 36.8 µM (inactive) | GI50 (HT-29): 21.8 µM (inactive) | GI50 (SK-MEL-2): 36.3 µM (inactive) | GI50 (MOLT-4): 21.5 µM (inactive) | GI50 (K562): 26.2 µM (inactive)

NC(=O)C(NC=O)c1ccccc1 (stereo not drawn)
GI50 (HCC 2998): > 100 µM (inactive) | GI50 (HCT-15): > 100 µM | GI50 (SF-295): > 100 µM (inactive) | GI50 (UACC-257): > 100 µM (inactive) | GI50 (TK-10): > 100 µM (inactive) | GI50 (CAKI-1): > 100 µM (inactive) | GI50 (OVCAR-3): > 100 µM (inactive) | GI50 (IGROV-1): > 100 µM (inactive) | GI50 (MCF7): > 100 µM (inactive) | GI50 (SNB-75): > 100 µM (inactive) | GI50 (CCRF-CEM): > 100 µM (inactive) | GI50 (HCT-116): > 100 µM (inactive) | GI50 (DU-145): > 100 µM (inactive) | GI50 (SN12C): > 100 µM (inactive) | GI50 (HT-29): > 100 µM (inactive) | GI50 (NCI-H522): > 100 µM (inactive) | GI50 (MOLT-4): > 100 µM (inactive) | GI50 (K562): > 100 µM (inactive)

CSC12c3cc(C)n(-c4ccccc4)c3CC(C)(C)CN1C(=O)C2Oc1ccccc1 (stereo not drawn)
GI50 (HCC 2998): 41.2 µM (inactive) | GI50 (A498): 54 µM (inactive) | GI50 (HCT-15): 28.1 µM | GI50 (SF-295): 8.18 µM (inactive) | GI50 (UACC-257): 19.1 µM (inactive) | GI50 (CAKI-1): > 100 µM (inactive) | GI50 (OVCAR-3): > 100 µM (inactive) | GI50 (IGROV-1): > 100 µM (inactive) | GI50 (MCF7): 18 µM (inactive) | GI50 (SNB-75): > 100 µM (inactive) | GI50 (CCRF-CEM): 16.6 µM (inactive) | GI50 (HCT-116): 12.1 µM (inactive) | GI50 (DU-145): > 100 µM (inactive) | GI50 (SN12C): > 100 µM (inactive) | GI50 (SK-MEL-2): 72.8 µM (inactive) | GI50 (MOLT-4): 10.2 µM (inactive) | GI50 (K562): 32.1 µM (inactive)

COc1cc(-c2cc(=O)c3c(OC)c(OC)c(OC)c(OC)c3o2)c(OC)c(OC)c1OC
GI50 (HCC 2998): 49.3 µM (inactive) | GI50 (HCT-15): 30.3 µM | GI50 (SF-295): 43.8 µM (inactive) | GI50 (UACC-257): 42.3 µM (inactive) | GI50 (TK-10): 61.7 µM (inactive) | GI50 (CAKI-1): 27.5 µM (inactive) | GI50 (IGROV-1): 12.3 µM (inactive) | GI50 (MCF7): 47.2 µM (inactive) | GI50 (SNB-75): 16.4 µM (inactive) | GI50 (CCRF-CEM): 50.7 µM (inactive) | GI50 (HCT-116): 30.7 µM (inactive) | GI50 (DU-145): 43.4 µM (inactive) | GI50 (SN12C): 35.2 µM (inactive) | GI50 (HT-29): 31 µM (inactive) | GI50 (SK-MEL-2): 20.5 µM (inactive) | GI50 (NCI-H522): 20.7 µM (inactive) | GI50 (MOLT-4): 72.6 µM (inactive) | GI50 (K562): 60.3 µM (inactive)

Cc1ccc(-c2cnc(NC3OC(COC(=O)c4ccccc4)C(OC(=O)c4ccccc4)C(OC(=O)c4ccccc4)C3OC(=O)c3ccccc3)s2)cc1 (stereo not drawn)
GI50 (HCT-15): > 100 µM | GI50 (SF-295): > 100 µM (inactive) | GI50 (UACC-257): 67.9 µM (inactive) | GI50 (TK-10): > 100 µM (inactive) | GI50 (OVCAR-3): > 100 µM (inactive) | GI50 (IGROV-1): > 100 µM (inactive) | GI50 (MCF7): > 100 µM (inactive) | GI50 (SNB-75): > 100 µM (inactive) | GI50 (HCT-116): > 100 µM (inactive) | GI50 (DU-145): > 100 µM (inactive) | GI50 (SN12C): > 100 µM (inactive) | GI50 (HT-29): > 100 µM (inactive) | GI50 (SK-MEL-2): > 100 µM (inactive) | GI50 (NCI-H522): > 100 µM (inactive) | GI50 (MOLT-4): > 100 µM (inactive)
